Where two headings read alike, the source gives them in different places.
Key:
MDCKII-WT cell monolayer [1] = conditions: GF 0 to 50 vol % in upstream vehicle
MDCKII-WT cell monolayer [2] = tested on: MDCKII-WT cell monolayer
MDCKII-WT cells = tested on: MDCKII-WT cells
Description: (§1) Maden Darby Canine Kidney II wild type (MDCKII-WT) cells were seeded at 43,000 cells/cm^2 on six-well polyester membrane inserts (Transwell®) with a pore size of 0.4 μm. Cells were maintained in Dulbecco's modified Eagle's medium supplemented with 10% fetal bovine serum and 1% penicillin and streptomycin at 37° C. in a humidified incubator with 5% CO2. Media were changed every other day, and cell monolayers were cultured for 4 days before use.
Viability of MDCKII-WT cells was measured by incubating the cells in suspension for 30, 60, and 120 min in various GF/buffer compositions at 37° C. Trypan blue dye was then added into the cell suspension, and incubated for 10 min. A sample was drawn from the suspension and spread on a hemocytometer, and counts of live (transparent) and dead (blue) cells were made.

MDCKII-WT cell monolayer [3] = conditions: 0-50% GF with assay buffer, over 30 min
Description: as §1

[4] = cited from earlier work
[5] = cited from earlier work; remark: listed apart in the source
[6] = in vivo; cited from earlier work
clinical = conditions: human, plasma, inhaled or intranasal, 5 mg
[7] = Nasal administration of diazepam and midazolam preparations in two healthy volunteers; conditions: for Nasal Discomfort / Nasal Discomfort (maximum): subject self-rating, IN 5 mg dose, n = 2
Description: Approximately 0.5 ml (2.5 mg) was dripped into each nostril over a period of 30 seconds.

[8] = Diffusion studies through silicone membranes (Franz diffusion cell); conditions: for Steady State Flux / Time Lag / Transference: 75 μm silicone membrane
[9] = rectal, published data (Cloyd et al, Epilepsia 1998); cited from earlier work
[10] = Comparison of intranasal with published rectal diazepam concentration-time course
[11] = DZP permeation through blank filter; conditions: S from 1 to 6, 30/70 GF/AB vehicle, blank filters
[12] = Lipid-solubility (octanol/water ratio) of benzodiazepines; conditions: from Table 1
patients with SE = conditions: intravenous, given within 30 minutes of the onset of SE; cited from earlier work
[13] = buccal, 5 mg commercial parenteral MDZ, 8 healthy volunteers
[14] = human, blood, other: intranasal, 5 mg

For “tetrahydrofurfuryl alcohol polyethyleneglycol ether [GF]”, the “effect of GF content on transference of DZP through MDCK cell monolayer” value (MDCKII-WT cell monolayer [1]) was “transference increased with increasing GF content”, the “effect of GF content on permeability of mannitol” value (MDCKII-WT cell monolayer [2]; GF/AB cosolvent mixtures, 0 to 50 vol % GF) was “permeability of mannitol increases” and the “percentage mass transported of mannitol” value (MDCKII-WT cell monolayer [2]; all GF/AB cosolvent systems (0-50 vol % GF), t=30 min) was “below 5%”. The viable cells (MDCKII-WT cells; 30 min treatment, GF up to 50 vol %) was “more than 90%”, the cell viability (MDCKII-WT cells; 1 h exposure, GF compositions above 30%) was “marked decease in cell viability” and the lethality (MDCKII-WT cells; 2 h exposure, GF compositions equal to or more than 20%) was 100%. For the same compound, the TEER values (MDCKII-WT cell monolayer [3]) was > 100 Ω·cm2.
For Cc1ncc2n1-c1ccc(Cl)cc1C(c1ccccc1F)=NC2 [MDZ, midazolam], the “Lipid-solubility (Octanol/Water Ratio)” value ([4]; at pH = 3) is listed as “at pH = 3: 34”, the “Lipid-solubility (Octanol/Water Ratio)” value ([4]; at pH = 7.5) is listed as “at pH = 7.5: 475” and the “time to pharmacological effect comparable to IV diazepam” value ([5]; IM injection) is listed as ≤ 15 minutes. For the same compound, the “time to peak serum concentrations” value ([5]; IM) was 20 to 30 min, the average bioavailability [5, 13] was 75% and the “time to peak serum concentrations” value [5, 13] was 15 to 90 min. The bioavailability ([5]; rectal) was 15-30 % of a dose, the “Elimination T½” value [6] was 30 to 240 min and the “First-pass Effect” value [6] was “High”. For the same compound, the Cmax (clinical) was 64.6 ng/mL, the bioavailability (clinical) was 97.9% and the “nasal discomfort (in words)” value ([7]; IN commercial formulations: DZP solvents 40% propylene glycol and 10% ethanol, MDZ pH=3) was “significant discomfort”. The Tmax [7, 14] was 20 min, the bioavailability [7, 14] was 67.5% and the “Nasal Discomfort” value [7] was 1.0. For the same compound, the “Nasal Discomfort (maximum)” value [7] was 6.0.
For CN1C(=O)CN=C(c2ccccc2)c2cc(Cl)ccc21 [DZP, diazepam], the “steady state flux as a function of degree of saturation S” value ([8]; S=0.5-6.25, 50:50 GF/water, silicone membrane) was “increased nearly linearly with increasing degree of saturation”, the “Steady State Flux” value ([8]; S=1, 30% GF) was 0.823 ± 0.030 μg/(cm^2 · min) and the “Time Lag” value ([8]; S=1, 30% GF) was 1.876 ± 0.165 min. For the same compound, the Transference ([8]; S=1, 30% GF) was 0.823 ± 0.030 μg/(cm^2 · min), the “Steady State Flux” value ([8]; S=1, 40% GF) was 0.826 ± 0.019 μg/(cm^2 · min) and the “Time Lag” value ([8]; S=1, 40% GF) was 1.793 ± 0.020 min. The Transference ([8]; S=1, 40% GF) was 0.826 ± 0.019 μg/(cm^2 · min), the “Steady State Flux” value ([8]; S=1, 50% GF) was 0.824 ± 0.011 μg/(cm^2 · min) and the “Time Lag” value ([8]; S=1, 50% GF) was 1.842 ± 0.119 min. The Transference ([8]; S=1, 50% GF) was 0.824 ± 0.011 μg/(cm^2 · min), the “Steady State Flux” value ([8]; S=3, 30% GF) was 2.309 ± 0.070 μg/(cm^2 · min) and the “Time Lag” value ([8]; S=3, 30% GF) was 1.806 ± 0.135 min. The Transference ([8]; S=3, 30% GF) was 0.770 ± 0.023 μg/(cm^2 · min), the “Steady State Flux” value ([8]; S=3, 40% GF) was 2.310 ± 0.055 μg/(cm^2 · min) and the “Time Lag” value ([8]; S=3, 40% GF) was 1.787 ± 0.091 min. The Transference ([8]; S=3, 40% GF) was 0.770 ± 0.018 μg/(cm^2 · min), the “Steady State Flux” value ([8]; S=3, 50% GF) was 2.321 ± 0.095 μg/(cm^2 · min) and the “Time Lag” value ([8]; S=3, 50% GF) was 1.755 ± 0.134 min. For the same compound, the Transference ([8]; S=3, 50% GF) was 0.774 ± 0.032 μg/(cm^2 · min), the “time to maximum concentration” value [9] was 45 min and the “time to maximum concentration” value ([10]; nasal, 5 mg) was 28 min. For the same compound, the peak concentration ([10]; rectally, published data adjusted from 15 mg to 5 mg assuming linear pharmacokinetics) was 128 ng/mL, the “steady state flux as a function of degree of saturation S” value [11] was “increased linearly with increasing degree of saturation” and the “time to peak concentrations” value ([5]; rectal, adults) was 15 to 45 min. The “time to peak concentrations” value ([5]; rectal, children) was 5 to 10 min, the “Nasal Discomfort” value [7] was 1.5 and the “Nasal Discomfort (maximum)” value [7] was 6.8.
For O=C1Nc2ccc(Cl)cc2C(c2ccccc2Cl)=NC1O (stereo not shown) [LZP, lorazepam], the “lipid-solubility relative to DZP and MDZ” value [12] is given as “⅕”, the “time of peak plasma concentrations” value ([5]; rectal) is given as 75 min and the “Elimination T½” value [6] is given as 480 to 1500 min. The “First-pass Effect” value [6] was “Low” and the effective in patients (patients with SE) was 60-80%.

Reference: patent US20070208011A1, “Supersaturated Benzodiazepine Solutions and Their Delivery” (priority 2005, published 2007)
